Series [1] deals with T1, Heat shock factor protein 1 (Mus musculus, UniProt P38532).
T1 sequence (P38532 whole entry): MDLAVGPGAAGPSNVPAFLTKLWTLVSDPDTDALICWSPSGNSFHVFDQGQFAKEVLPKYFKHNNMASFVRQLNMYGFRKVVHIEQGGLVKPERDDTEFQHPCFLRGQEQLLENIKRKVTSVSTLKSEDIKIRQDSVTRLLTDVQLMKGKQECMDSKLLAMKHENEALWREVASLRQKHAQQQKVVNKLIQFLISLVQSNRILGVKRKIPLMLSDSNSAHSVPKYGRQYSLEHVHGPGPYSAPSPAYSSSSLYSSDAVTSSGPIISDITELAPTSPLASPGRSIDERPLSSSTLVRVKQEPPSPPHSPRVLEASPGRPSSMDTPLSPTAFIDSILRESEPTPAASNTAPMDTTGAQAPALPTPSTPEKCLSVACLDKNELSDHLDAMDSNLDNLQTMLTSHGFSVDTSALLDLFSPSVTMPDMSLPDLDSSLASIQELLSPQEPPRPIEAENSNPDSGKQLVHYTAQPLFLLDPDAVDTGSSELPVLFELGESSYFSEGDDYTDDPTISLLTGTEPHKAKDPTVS
Kind of series: decrease of HSF1-responsive luciferase luminescence – cell-based, NIH3T3, dose retest, confirmation (AID 2382).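 Also: NIH3T3 fibroblasts with HSF1-driven luciferase reporter stressed by proteasome inhibitor MG132; luminescence from HSF1-driven luciferase expression after 8 hours of MG132 stress.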 It is filed as functional.

Series [2] has as its target T2, Rac GTPase-activating protein 1 (Homo sapiens, UniProt Q9H0H5).
T2 sequence (Q9H0H5 whole entry): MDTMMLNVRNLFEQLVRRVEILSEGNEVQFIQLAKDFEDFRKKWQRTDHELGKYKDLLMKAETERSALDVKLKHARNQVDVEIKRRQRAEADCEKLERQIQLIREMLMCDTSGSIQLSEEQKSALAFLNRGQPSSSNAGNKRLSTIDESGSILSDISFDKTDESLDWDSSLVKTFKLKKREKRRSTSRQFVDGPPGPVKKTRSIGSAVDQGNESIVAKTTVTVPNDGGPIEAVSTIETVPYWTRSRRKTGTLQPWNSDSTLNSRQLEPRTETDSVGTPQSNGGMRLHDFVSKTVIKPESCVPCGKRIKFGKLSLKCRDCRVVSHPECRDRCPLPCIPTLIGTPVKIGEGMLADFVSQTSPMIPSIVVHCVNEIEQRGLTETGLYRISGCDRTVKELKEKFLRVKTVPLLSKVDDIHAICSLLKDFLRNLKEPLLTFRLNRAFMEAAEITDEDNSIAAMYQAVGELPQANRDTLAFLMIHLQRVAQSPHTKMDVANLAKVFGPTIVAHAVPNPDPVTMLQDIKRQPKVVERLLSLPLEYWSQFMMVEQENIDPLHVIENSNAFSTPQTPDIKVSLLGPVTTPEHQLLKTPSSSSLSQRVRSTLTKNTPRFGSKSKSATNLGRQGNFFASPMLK
Kind of series: blockers of MgcRacGAP-driven Rac1 GTP hydrolysis – biochemical, ADP Hunter fluorescence, primary and confirmatory, confirmation (AID 624330). It is filed as functional.

The nature of series [3]: Luminescence Cell-Based Dose Response HTS to Identify Activators of Luciferase Translation or Activity in H4 […] Cells. [Related pubchem assays: 1829 (Project Summary), 1814 (Primary HTS)]. The class given is functional.
The test system of the next series is H4. The experiment in a line: Luminescence Cell-Based Dose Response HTS to Identify Activators of 5'UTR Stem-Loop Driven Prion Protein mRNA Translation in H4 Neuroglioblastoma Cells. [Related pubchem assays: 1829 (Project Summary), 1814 (Primary HTS)]. It is filed as functional. Particulars: Homo sapiens.
The test system of a further series is INS1. Kind of series: INS-1E survival protection against cytokine death – cell-based, luminescence, retest, dose response (AID 449756).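 Also: cell death triggered by IL-1 beta plus TNF-alpha plus IFN-gamma mixture; protective hits raise ATP signal compared with cytokine alone wells.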 The class given is functional. The conditions noted are these: Rattus norvegicus.
A further series deals with Cytochrome P450 3A4 (Homo sapiens, UniProt P08684).
Cytochrome P450 3A4, sequence (P08684 whole entry): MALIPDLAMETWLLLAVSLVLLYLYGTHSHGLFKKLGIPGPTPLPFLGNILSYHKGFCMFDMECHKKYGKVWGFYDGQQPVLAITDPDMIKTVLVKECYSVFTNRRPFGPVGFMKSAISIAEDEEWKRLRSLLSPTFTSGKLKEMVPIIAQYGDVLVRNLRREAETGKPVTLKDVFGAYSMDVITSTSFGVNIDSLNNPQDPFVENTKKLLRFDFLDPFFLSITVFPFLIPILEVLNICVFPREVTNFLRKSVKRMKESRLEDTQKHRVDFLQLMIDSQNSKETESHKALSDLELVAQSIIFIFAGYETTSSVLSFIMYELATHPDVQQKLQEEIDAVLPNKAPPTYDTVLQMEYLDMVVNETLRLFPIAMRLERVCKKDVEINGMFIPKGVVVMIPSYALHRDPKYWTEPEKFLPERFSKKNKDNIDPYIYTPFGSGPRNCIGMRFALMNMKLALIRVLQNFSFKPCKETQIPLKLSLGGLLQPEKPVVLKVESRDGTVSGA
The target of another series is Cytochrome P450 2C19 (Homo sapiens, UniProt P33261). The experiment in a line: Cytochrome panel assay with activity outcomes. Panel member name: p450-cyp2c19 Compounds with AC50 equal or less than 10 uM are considered active. It is filed as functional.
Cytochrome P450 2C19, sequence (P33261 whole entry): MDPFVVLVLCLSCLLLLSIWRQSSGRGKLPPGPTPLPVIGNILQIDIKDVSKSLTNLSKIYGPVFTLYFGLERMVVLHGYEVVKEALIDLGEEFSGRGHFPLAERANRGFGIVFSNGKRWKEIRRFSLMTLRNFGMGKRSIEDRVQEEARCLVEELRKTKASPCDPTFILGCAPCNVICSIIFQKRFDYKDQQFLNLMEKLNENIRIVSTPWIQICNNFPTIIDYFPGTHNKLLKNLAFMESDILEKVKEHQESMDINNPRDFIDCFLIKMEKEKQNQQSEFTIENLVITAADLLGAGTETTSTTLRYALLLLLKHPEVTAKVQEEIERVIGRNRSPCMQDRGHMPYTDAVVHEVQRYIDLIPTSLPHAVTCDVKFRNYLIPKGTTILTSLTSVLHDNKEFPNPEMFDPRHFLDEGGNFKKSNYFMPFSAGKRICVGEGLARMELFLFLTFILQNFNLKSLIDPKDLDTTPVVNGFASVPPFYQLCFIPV
For a further series, the target named is T3, Cytochrome P450 1A2 (Homo sapiens, UniProt P05177).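 Also: PubChem cytochrome P450 panel assay, CYP1A2 panel member.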
T3 sequence (P05177 whole entry): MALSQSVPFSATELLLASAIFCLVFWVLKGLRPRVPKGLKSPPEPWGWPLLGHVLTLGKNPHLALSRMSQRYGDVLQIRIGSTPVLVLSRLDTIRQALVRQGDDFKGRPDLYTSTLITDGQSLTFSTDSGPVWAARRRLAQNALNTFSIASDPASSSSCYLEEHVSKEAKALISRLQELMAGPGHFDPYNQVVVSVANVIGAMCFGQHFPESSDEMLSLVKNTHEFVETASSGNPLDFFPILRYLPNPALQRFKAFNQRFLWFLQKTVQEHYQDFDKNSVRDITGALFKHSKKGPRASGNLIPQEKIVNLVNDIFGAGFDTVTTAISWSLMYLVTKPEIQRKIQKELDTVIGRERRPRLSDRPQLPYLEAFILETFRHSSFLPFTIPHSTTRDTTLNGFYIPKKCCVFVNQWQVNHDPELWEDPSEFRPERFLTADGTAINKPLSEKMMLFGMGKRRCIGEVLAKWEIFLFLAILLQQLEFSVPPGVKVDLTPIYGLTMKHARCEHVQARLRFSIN

In the next series the target is Cytochrome P450 2C9 (Homo sapiens, UniProt P11712).
Cytochrome P450 2C9, sequence (P11712 whole entry): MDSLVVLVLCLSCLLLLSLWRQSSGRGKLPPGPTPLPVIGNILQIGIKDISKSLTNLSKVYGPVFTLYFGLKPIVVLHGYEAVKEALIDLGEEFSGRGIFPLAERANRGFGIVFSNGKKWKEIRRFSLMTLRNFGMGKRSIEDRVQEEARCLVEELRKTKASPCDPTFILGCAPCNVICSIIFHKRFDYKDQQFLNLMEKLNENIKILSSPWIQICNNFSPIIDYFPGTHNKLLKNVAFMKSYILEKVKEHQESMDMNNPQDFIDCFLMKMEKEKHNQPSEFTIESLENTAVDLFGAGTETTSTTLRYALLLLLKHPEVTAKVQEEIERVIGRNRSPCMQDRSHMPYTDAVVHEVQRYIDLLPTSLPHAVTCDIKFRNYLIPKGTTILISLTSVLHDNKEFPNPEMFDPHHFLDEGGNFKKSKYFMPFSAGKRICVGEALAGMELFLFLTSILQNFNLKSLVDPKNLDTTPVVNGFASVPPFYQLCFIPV
Series [4] can be described thus: Trypanosoma cruzi growth suppression in host cells – NIH3T3 host cells, beta-gal luminescence, confirmation (AID 2044).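 Also: intracellular parasites grown in NIH/3T3 mouse fibroblasts as host cells; luminescent beta-galactosidase reporter signal from transgenic T. cruzi replicating inside host cells; inhibitors lower the luminescence signal.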 It is filed as functional, cell-based.
Series [5] can be described thus: NIH3T3 cell viability loss – ATP luminescence, mouse fibroblasts, counter-screen, dose response (AID 2010).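 Also: cells exposed to compound for about 90 hours before reading.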 It is filed as functional, cell-based. (A counterscreen serves to expose hits that act by an unwanted route or on another target.)

“And” between values parts separate entries of the source, which are not always exact repeats. Equal entries are not always repeated. The source made the active and inactive calls.

As a reminder, the EC50 is the concentration that produces a half-maximal response. The term IC50 denotes the concentration needed to halve the response being measured. The term AC50 denotes the concentration at which the activity in the assay is half-maximal.

`Cc1ccc(NC(=O)NC(=O)CN2CCN(c3ccc(O)cc3)CC2)c(C)c1`: the EC50 in series [1] is recorded as > 195 µM (not active). The IC50 in series [2] was 64.9 µM (active). Turning to `O=C(COc1ccc(F)cc1)Nc1cc(Cl)ccc1-n1cncn1`, the EC50 in [1] is > 195 µM (not active). As to `CC(C)(C)C(=O)/C=C/c1ccc(Oc2ccccc2)cc1`, the EC50 in series [1] is reported as > 195 µM (not active). For the compound `COc1cc(OC)cc(C(=O)NCC(=O)OCc2nc3ccccc3s2)c1`, the EC50 in series [3] was 14.6 µM (active); in the series with H4, 0.165 µM (active). In the case of `O=C(COC(=O)/C=C/c1ccccc1[N+](=O)[O-])Nc1ccc(OCc2ccccc2)cc1`, the EC50 in [3] was 4.21 µM (active); in the series on H4 it was 40.1 µM (active). `CN1N=C(C(C)(C)C)CS/C1=N/c1ccccc1`: in the series with INS1, the AC50 was > 260 µM (inactive). For the compound `O=S(=O)(Nc1ccc2c(c1)OCCO2)c1cccc2nsnc12`, in series [1], the EC50 was 4.32 µM (active).

As to `O=[N+]([O-])c1ccc2c(c1)N=C1O[C@H](c3c[nH]c4ccc(COc5ccccc5)cc34)C(O)=C1N2`, the AC50 on Cytochrome P450 3A4 and at Cytochrome P450 2C19 (read-out: AC50) was 3.16 µM (inconclusive) in each case.

For `Cc1c(NC(=O)C23CC4CC(CC(C)(C4)C2)C3)c(=O)n(-c2ccccc2)n1C`, the AC50 is 31.6 µM (inconclusive) at Cytochrome P450 3A4 and “inconclusive” at Cytochrome P450 2C19.

As for `COc1cc(/C=C2/C(=N)N3OC(C)=CC3=NC2=O)ccc1OCCOc1ccc(C)cc1`, the AC50 is 11.2 µM (inconclusive) at Cytochrome P450 3A4 and 4.47 µM (inconclusive) on Cytochrome P450 2C19 (read-out: AC50). `COc1ccc(C2CC(c3cccc(C)c3)n3nc(N)nc3N2)cc1` (configuration not stated): in the series on INS1, the AC50 was > 260 µM (inactive). `O=C1C2CCCN2C(c2ccccc2F)N1c1ccc(Cl)cc1` (configuration not stated): the AC50 is 14.1 µM (inconclusive) at Cytochrome P450 3A4, 2 µM (inconclusive) on Cytochrome P450 1A2 and 39.8 µM (inconclusive) on Cytochrome P450 2C9.

For the compound `CCOc1ccc(OCC)c(-c2c(=O)n(OCc3ccc(C(C)(C)C)cc3)c3ccccc3[n+]2[O-])c1`, the AC50 at Cytochrome P450 3A4 is 12.6 µM (inconclusive). `C=C1C(=O)O[C@@H]2[C@@H]1CC/C(C)=C\CC[C@@]1(C)O[C@H]21`: the AC50 at Cytochrome P450 3A4 is 20 µM (inconclusive) and 12.6 µM (inconclusive). The same measure, in the same setting: with `c1ccc([C@H]2CNCc3ccccc32)cc1` the figure was 15.8 µM (inconclusive). With `Fc1ccc(C(OCCN2CCN(C/C=C\c3ccccc3)CC2)c2ccc(F)cc2)cc1`, the figures for the AC50 on Cytochrome P450 3A4 and at Cytochrome P450 1A2 were 15.8 µM (inconclusive) and 31.6 µM (inconclusive), respectively. Turning to `O=C1C(/C=C(\O)c2ccccc2)=NCC2c3ccccc3CCN12` (configuration not stated), the values for the EC50 (in series [3]; in the series on H4) were 0.491 µM (active) and 8.18 µM (active), respectively. For the compound `CSCCC(NC(=O)CCC(=O)OCC(=O)[C@@]1(O)CCC2[C@@H]3CCC4=CC(=O)C=C[C@]4(C)C3[C@@H](O)C[C@@]21C)C(=O)O` (some centres not stated), the EC50 in [1] was 0.216 µM (active). Take `NC(=NOC(=O)Cc1ccccc1[N+](=O)[O-])c1cccnc1`: the EC50 in [1] is > 195 µM (not active). As for `O=[N+]([O-])c1ccc2nc(N3CCNCC3)ccc2c1` [6-NITROQUIPAZINE], the values for the AC50 at Cytochrome P450 3A4 and at Cytochrome P450 2C19 were 10 µM (inconclusive) and “inconclusive”, respectively. As to `CN(C)c1ccc(NC(S)=NC23CC4CC(CC(C4)C2)C3)cc1`, the EC50 in [3] is 20.6 µM (active); in the series with H4 it was 17.1 µM (active). For the same compound, the AC50 in the series with INS1 was 83.2 µM (active). `O=C(CC1C(=O)NCCN1Cc1ccc(-c2ccccc2)cc1)NC1CCC1` (configuration not stated): the AC50 in the series on INS1 is > 260 µM (inactive). On to `NCCCCCCNS(=O)(=O)c1cccc2ccccc12`, for which the figures for the AC50 on Cytochrome P450 1A2 and on Cytochrome P450 2C9 were 25.1 µM (inconclusive) and 0.2 µM (inconclusive), respectively. `CC1CCN(C2=NC(=O)/C(=C/c3ccccc3F)S2)CC1`: the EC50 in [1] is given as > 195 µM (not active). Consider `O=C(NCc1ccco1)C(=O)NCC(c1ccco1)N1CCOCC1` (configuration not stated), for which, in series [1], the EC50 is > 195 µM (not active).

With `COc1cccc(Cn2c(=O)c(CCc3ccccc3)nc3cnc(N(C)C)nc32)c1`, the AC50 on Cytochrome P450 3A4 is 2.51 µM (inconclusive). Take `COc1ccc(NC(=O)N2CC[C@@]3(CCCN(C(=O)c4cccc(F)c4)C3)C2)cc1`: the AC50 at Cytochrome P450 3A4 was 15.8 µM (inconclusive); on Cytochrome P450 1A2 it was 25.1 µM (inconclusive). With `CC(=O)/C=C1\N(C)c2ccc(C)cc2C1(C)C`, the values for the EC50 in series [4] and in series [5] were 1.93 µM (active) and > 60 µM (not active), respectively. Besides, in the series on INS1, the AC50 was 5.32 µM (active).

Regarding `CCOC(=O)C1C(=O)OC(C)(C)C1C(C)C(=O)c1ccc(C)cc1` (configuration not stated), the EC50 in series [1] is reported as > 195 µM (not active).

Regarding `O=C(Cc1ccccc1)Nc1nc2ccccc2s1`, in [1], the EC50 is recorded as > 195 µM (not active).
